Data set [1] in a line: blood cell count after the last dosage in the therapeutic study. The format is in vivo, mice. The procedure:
(§1) Tumor bearing mice (n=6-8) were intravenously administered PBS; Velcade® (0.8 mg/kg); BTZ-PVA (0.8, 1.2 mg/kg); DOX (4 mg/kg); DOX-DCMs (4 mg/kg); BTZ 0.8 mg/kg followed by DOX 4 mg/kg 24 h later; or BTZ-PVA 0.8 mg/kg followed by DOX-DCMs 24 h later every four days for a total of 6 doses. Data represent mean±SEM.

The nature of data set [2]: serum chemistry (hepatic and renal function panel) in the therapeutic study. The class given is in vivo, mice. Particulars: day 7 after the last dosage. The procedure:
as §1

The nature of data set [3]: cumulative BTZ release in PBS medium. The class given is physicochemical. The conditions noted are these: PBS pH 7.4, within the first 3 h.
In data set [4] the test system is subcutaneous MDA-MB-231 breast cancer xenografts. Briefly: in vivo therapeutic study, breast cancer xenograft. The arrangement: species or system nude mice. Particulars: 5 mg/kg intravenous, every four day, 6 doses. The procedure:
In vivo therapeutic study. Subcutaneous MDA-MB-231 breast cancer xenografts were implanted into nude mice as described above. […] On day 0, these mice were randomly divided into three groups, with five mice in each group. […] Tumor volume was calculated by the formula (L×W^2)/2, where L is the longest and W is the shortest in tumor diameters(mm). Anti-tumor efficacy in breast cancer xenograft mouse mode The anti-tumor effects of DOX-PVA-LA NPs after intravenous injection were evaluated in subcutaneous MDA-MB-231 tumor bearing mice.

Data set [5] is described as follows: in vitro DOX release from PPNs by dialysis. The format is physicochemical. The conditions noted are these: PBS 37° C., within the first 5 hrs.
Description: In vitro drug release profiles were carried out using the dialysis method. Aliquots of DOX-loaded PPNs solution were injected into a dialysis cartridge with a molecular weight cutoff of 3.5 kDa. The whole dialysis process was carried out at 37° C. with swirling at 70 rpm in the presence of 10 g/L activated charcoal in 1 L PBS buffer. The concentration of DOX remained in the dialysis cartridge at various time points was determined by absorbance measurement.
Data set [6] in a line: in vivo toxicity evaluation. The arrangement: species or system mice. Particulars: 5 days after the last dose. The procedure:
Phototherapy and tumor response. Subcutaneous SKOV-3 tumor-bearing mice were used for in vivo therapeutic study when tumor volumes reached 80-120 mm^3 (designate as Day 0). The therapeutic efficacy and toxicity profiles of different PPNs formulations were evaluated. On day 0, all mice were randomly divided into seven groups (n=6). Mice were intravenously administered with PBS, blank PPNs, DOX·HCl and PPNs-DOX. The DOX was given at the dose of 2.5 mg/kg, and PPNs was given at the dose of 2 mg/kg, calculated on the porphyrin content. The treatment was given every 5 days on day 0, 5, 10 and 15 for a total 4 doses. […] Tumor size and body weight were measured twice a week. Tumor volume was calculated using the equation (L×W^2)/2, where L is the longest and W is shortest in tumor diameters (mm). For humane reasons, mice were sacrificed when tumor volume reached 1000 mm^3, which was considered as the end point of survival data. At day 5 after the last dosage, blood samples were collected from each group to test blood cell counts and serum chemistry.
In vivo toxicity evaluation. The potential toxicity of PPNs and the related formulations was assessed in all treated mice. The body weight change, blood cell counts and serum chemistry including renal and hepatic function panels were monitored. […]

The test system of data set [7] is subcutaneous SKOV-3 tumor. Briefly: phototherapy and tumor response. The class given is in vivo, mice.
Description: Phototherapy and tumor response. Subcutaneous SKOV-3 tumor-bearing mice were used for in vivo therapeutic study when tumor volumes reached 80-120 mm^3 (designate as Day 0). The therapeutic efficacy and toxicity profiles of different PPNs formulations were evaluated. On day 0, all mice were randomly divided into seven groups (n=6). […] The DOX was given at the dose of 2.5 mg/kg, and PPNs was given at the dose of 2 mg/kg, calculated on the porphyrin content. The treatment was given every 5 days on day 0, 5, 10 and 15 for a total 4 doses. […] Tumor size and body weight were measured twice a week. Tumor volume was calculated using the equation (L×W^2)/2, where L is the longest and W is shortest in tumor diameters (mm). For humane reasons, mice were sacrificed when tumor volume reached 1000 mm^3, which was considered as the end point of survival data.
Data set [8] relates to SKOV-3 ovarian cancer cells. Briefly: cellular uptake (flow cytometry, confocal microscopy). The class given is cell-based. The procedure: The uptake profiles of DOX-loaded PPNs in SKOV-3 ovarian cancer cells were qualitatively observed by confocal microscopy. SKOV-3 cells were seeded in an 8-well slide. […] Then the cells were washed thrice with PBS buffer, fixed with 4% paraformaldehyde for 15 min. The nuclei were stained with DAPI. The slides were mounted with coverslips and observed by confocal microscopy.
The cellular uptake efficiency of PPNs in SKOV3 ovarian cancer cells was quantified with flow cytometry at different incubation time points (FIG. 19a). […] Additionally, a marked increase in porphyrin fluorescence from PPNs was visualized in the cytoplasm at 6 hrs, compared to that at 30 min after incubation.
(In general: Flow cytometry measures light scatter and fluorescence of single cells or particles in a stream.)

Data set [9] can be described thus: in vitro DOX release from PVA-LA NPs by dialysis. The conditions noted are these: PBS, within 1 h. The format is physicochemical. The procedure:
Drug release study. DOX-loaded Cr-PVA-LA NPs solution was prepared to determine the in vitro drug release profile. The initial DOX concentration was 1.0 mg/mL, Aliquots of the DOX-loaded Cr-PVA-LA NPs solution were injected into dialysis cartridges with 3.5 kDa MWCO. The cartridges were dialyzed against 100 volume times PBS solution at 37° C. and rotator rate was set to 100 rpm. […] Values were reported as the means for each triplicate samples.
Loading and Triggered Release of DOX. […] The accumulated release results shown in FIG. 14 represent the total amount of DOX released from different sample. […] More than 50% of DOX were release within 1 h. […] It should be further noted that no burst release was observed even in the presence of NAC. The unique core-shell structure contributes to the constant release rate. This biodegradable PVA-LA NPs is a highly promising approach to controlled drug release.

Structures are written as SMILES.

For `CC(C)C[C@H](NC(=O)[C@H](Cc1ccccc1)NC(=O)c1cnccn1)B(O)O` [BTZ, [(1R)-3-methyl-1-({(2S)-3-phenyl-2-[(pyrazin-2-ylcarbonyl)amino]propanoyl}amino)butyl] boronic acid], in [1] (0.8 mg/kg), the Hemoglobin was determined as 14.6 ± 0.6 g/dL, the Neutrophil cells was 0.5 ± 0.4 K/μl, the Platelets was determined as 1424.3 ± 146.2 K/μL and the RBC is 9.2 ± 0.5 M/μl. This molecule also came in with a WBC in [1] (0.8 mg/kg) of 5.6 ± 1.3 K/μl. Further, in data set [2] (0.8 mg/kg), the ALT was 28.3 ± 3.3 U/L, the AST was 117.1 ± 26.4 U/L, the BUN turned out to be 16.3 ± 2.1 mg/dL and the Creatinine came to 0.2 ± 0.1 mg/dL. The “Total Bilirubin” value in data set [2] (0.8 mg/kg) was 0.1 ± 0.0 mg/dL. For the same molecule, in [3], the BTZ released result is on record as “about 80%”.

As to `COc1cccc2c1C(=O)c1c(O)c3c(c(O)c1C2=O)C[C@@](O)(C(=O)CO)C[C@@H]3O[C@H]1C[C@H](N)[C@H](O)[C@H](C)O1` [DOX, doxorubicin], the “anti-tumor activity compared with PBS control” value in data set [4] was “significant anti-tumor activity”. Besides, in data set [1] (4 mg/kg), the Hemoglobin was 13.6 ± 0.9 g/dL, the Neutrophil cells turned out to be 0.5 ± 0.2 K/μl, the Platelets is reported as 1618.2 ± 190.5 K/μL and the RBC is 8.3 ± 0.5 M/μl. The molecule also had a WBC in data set [1] (4 mg/kg) of 5.8 ± 1.0 K/μl. The DOX released in data set [5] worked out at 90%. Also, in data set [6], the “white blood cell counts” value is “certain decrease”. In data set [2] (4 mg/kg), this molecule showed an ALT of 42.6 ± 8.6 U/L, an AST of 167.7 ± 23.4 U/L, a BUN of 18.0 ± 2.6 mg/dL and a Creatinine of 0.2 ± 0.0 mg/dL. In addition, in data set [2] (4 mg/kg), the “Total Bilirubin” value was 0.1 ± 0.0 mg/dL. The “tumor growth compared to PBS control” value in data set [7] (DOX 2.5 mg/kg iv days 0, 5, 10, 15, without light) was “did not exhibit obvious antitumor effect”. For the same molecule, the “survival compared to PBS control” value in [7] (without light) was “no obvious prolonged survival rate”. Besides, the “intracellular localization of DOX fluorescence” value in data set [8] (30 min incubation) is “could be observed in the nuclei”. For the same molecule, in [8] (6 hrs incubation), the “intracellular localization of DOX fluorescence” value was “completely transported into the nuclei”. Further, in [9], the DOX released result is “More than 50%”.

For the origin of these results see patent publication US11135309B2, “Poly(vinyl alcohol) nanocarriers” (THE REGENTS OF THE UNIVERSITY OF CALIFORNIA, priority 2015, dated 2021).
